In publication PMC5701137, “Discovery of novel choline acetyltransferase inhibitors using structure-based virtual screening” (Scientific Reports, 2017):

Tests used:
[1] = molecular target: T1, plasma BuChE (Homo sapiens, UniProt P06276); assay: Modified Ellman's colorimetric assay for BuChE (pooled human plasma) and kinetic studies; assay type: biochemical; conditions: 200 µM compound, compared to control, mean of three experiments in triplicate; for BuChE % IR (inhibition rate): 200 µM; for inhibition at 200 µM: read-out: BuChE % IR (inhibition rate)
T1 construct: 1:450 diluted solution of a pooled human plasma; from tissue; host or cells: pooled human plasma
T1 sequence (P06276 29-602): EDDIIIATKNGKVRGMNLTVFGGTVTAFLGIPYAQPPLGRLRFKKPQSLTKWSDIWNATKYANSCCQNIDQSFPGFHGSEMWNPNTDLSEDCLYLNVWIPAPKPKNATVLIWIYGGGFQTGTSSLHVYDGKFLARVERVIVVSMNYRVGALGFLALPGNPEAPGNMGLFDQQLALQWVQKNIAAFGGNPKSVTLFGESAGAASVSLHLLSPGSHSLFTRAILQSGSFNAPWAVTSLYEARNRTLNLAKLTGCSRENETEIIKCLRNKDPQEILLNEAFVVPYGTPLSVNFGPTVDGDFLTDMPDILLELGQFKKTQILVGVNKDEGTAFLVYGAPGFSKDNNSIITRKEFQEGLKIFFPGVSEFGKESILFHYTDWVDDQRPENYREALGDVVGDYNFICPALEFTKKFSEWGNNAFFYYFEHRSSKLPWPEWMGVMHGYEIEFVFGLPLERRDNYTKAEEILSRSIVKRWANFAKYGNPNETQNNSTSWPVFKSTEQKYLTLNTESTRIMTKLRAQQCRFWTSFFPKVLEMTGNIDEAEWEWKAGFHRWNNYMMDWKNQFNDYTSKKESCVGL
Description: (§1) A modified version of Ellman’s colorimetric assay[16],[17] was adapted to a high throughput assay for the enzymatic activity of BuChE and AChE. The reagent, butyrylthiocholine iodide (BTC), acetylthiocholine iodide (ATC), 5,5′-dithiobis (2-nitrobenzoic acid) (DTNB) were purchased from Sigma-Aldrich (St. Louis, MO, USA). The modified assay details are as previously described[34],[35]. The main modification concerned with the high throughput adaptation of the assay for use in 384-well plates. Briefly, 25 μL/well of a 1:450 diluted solution of a pooled human plasma and 1:768 diluted (3.5 ng/ml final concentration) purified recombinant human AChE protein (Sigma, Cat no. C1682) was used for measurement of BuChE and AChE activity, respectively. In the initial in vitro screening step, the wells were pre-incubated with 25 μL/wells of different Asinex compounds for 10–30 minutes at room temperature. The concentration of the compounds working solution was 3X to give a final concentration of 200 μM in a final volume of 75 μL in each well. The stock concentration of the compounds were prepared in 100% DMSO. The stock concentration was chosen usually at 10 mM, allowing the final DMSO concentration in the wells to be less than 4%. Finally, 25 μL of a cocktail mix prepared in Na/K phosphate buffer, containing DTNB (final concentration 0.4 mM) and BTC, (final concentration 1 mM) or ATC (final concentration 0.5 mM) was added to each well and the changes in absorbance was monitored at 412 nm wavelength for 15–20 minutes with one-minute interval, using a microplate spectrophotometer reader (Infinite M1000, Tecan). The rate of the enzyme activity was determined from the linear part of the kinetic reaction curves as ∆OD/time.
(§2) For kinetic studies, a similar protocol as inhibition assay was followed; a dilution series of five different concentrations ranging from 10^−6 to 10^−9 M were prepared for each selected Asinex compounds. For ChAT, the A-CoA was kept constant at 10 μM (final) but the concentration of choline chloride varied between 320–10 μM. For BuChE, BTC was used as the substrate in the concentrations ranging from 0.0625 to 2 mM. For AChE, ATC was used as the substrate in the concentrations ranging from 0.0312 to 1 mM. Each compound concentration was measured in duplicates. The rate of enzyme activity (as ∆OD/hr kinetic data) was calculated and processed using the GraphPad Prism 7 analysis software. The inhibitory constant (Ki) values were determined from the dose-response curve and the half-maximal inhibitory concentration (IC50) values were calculated by plotting the percentage enzyme activity vs. the log of the Asinex compound concentrations and fitting the data using the nonlinear regression Enzyme Kinetics-Inhibition function.

[2] = molecular target: T2, human rChAT (Homo sapiens, UniProt P28329); assay: In vitro ChAT activity inhibition fluorometric assay and kinetic studies; assay type: biochemical; conditions: mean ± SEM of two experiments
T2 construct: made in house; host or cells: E. coli BL21 Rosetta2
T2 sequence (P28329 1-630 isoform P28329-3): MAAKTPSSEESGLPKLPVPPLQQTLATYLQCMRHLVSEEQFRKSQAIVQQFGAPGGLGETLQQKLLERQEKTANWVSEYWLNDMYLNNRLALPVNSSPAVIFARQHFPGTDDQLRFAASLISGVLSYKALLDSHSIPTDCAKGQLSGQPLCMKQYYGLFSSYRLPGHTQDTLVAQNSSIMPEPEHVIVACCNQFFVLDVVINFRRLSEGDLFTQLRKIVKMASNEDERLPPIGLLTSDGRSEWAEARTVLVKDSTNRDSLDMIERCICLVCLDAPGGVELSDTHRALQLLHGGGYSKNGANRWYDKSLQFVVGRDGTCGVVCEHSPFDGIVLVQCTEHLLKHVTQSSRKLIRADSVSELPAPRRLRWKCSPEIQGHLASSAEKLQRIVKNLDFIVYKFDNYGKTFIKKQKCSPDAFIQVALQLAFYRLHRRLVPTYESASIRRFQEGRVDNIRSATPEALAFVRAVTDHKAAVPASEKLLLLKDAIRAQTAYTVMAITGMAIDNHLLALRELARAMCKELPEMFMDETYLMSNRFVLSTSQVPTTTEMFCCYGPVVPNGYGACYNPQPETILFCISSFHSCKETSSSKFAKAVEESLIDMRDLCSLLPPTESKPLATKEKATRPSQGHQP

[3] = molecular target: T3, recombinant human AChE (Homo sapiens, UniProt P22303); assay: Modified Ellman's colorimetric assay for AChE and kinetic studies; assay type: biochemical; conditions: 200 µM compound, compared to control, mean of three experiments in triplicate; for inhibition at 200 µM: read-out: AChE % IR (inhibition rate)
T3 construct: purchased Sigma C1682
T3 sequence (P22303 32-614): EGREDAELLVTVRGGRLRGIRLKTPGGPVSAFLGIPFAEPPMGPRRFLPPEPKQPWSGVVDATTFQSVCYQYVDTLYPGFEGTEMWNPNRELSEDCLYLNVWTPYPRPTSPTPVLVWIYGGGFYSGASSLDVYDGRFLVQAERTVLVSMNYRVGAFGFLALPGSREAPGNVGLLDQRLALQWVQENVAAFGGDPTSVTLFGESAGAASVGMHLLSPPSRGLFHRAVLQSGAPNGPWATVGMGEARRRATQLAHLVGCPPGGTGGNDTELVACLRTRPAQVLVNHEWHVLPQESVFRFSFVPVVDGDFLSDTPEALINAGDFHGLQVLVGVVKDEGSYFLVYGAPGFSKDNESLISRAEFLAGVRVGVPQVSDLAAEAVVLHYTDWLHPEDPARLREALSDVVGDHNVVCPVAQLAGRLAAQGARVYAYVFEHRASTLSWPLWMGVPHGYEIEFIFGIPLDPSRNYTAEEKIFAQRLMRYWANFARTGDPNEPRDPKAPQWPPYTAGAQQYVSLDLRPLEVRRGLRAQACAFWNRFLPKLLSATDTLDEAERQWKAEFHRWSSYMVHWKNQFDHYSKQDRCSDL
Description: as §1, §2

[4] = test system: HEK 293 cells; assay: MTT cell viability assay; assay type: cell-based; conditions: for % of cell proliferation: overnight, control cells 100%, mean ± SD of 3 readings; for cellular toxicity in MTT assay (in words): 10 and 50 µM
Experimental: Finally, to assess the prospective of the identified compounds for further development into ChAT ligands, we assessed the compounds active against ChAT, AChE and BuChE, for their cellular toxicity on human embryonic kidney (HEK 293) cells using the cell viability 3-(4,5-dimethylthiazol-2-yl)-2,5-diphenyltetrazolium bromide (MTT) assay. All compounds were evaluated at 10 and 50 µM concentrations. The cell viability data is given in Table 4 (also represented as a bar chart in Fig. 9).
The in vitro cellular toxicity of the active compounds was evaluated using MTT assay. Briefly, Human embryonic kidney epithelial (HEK-293) cells cultured at 37 °C in a humidified environment with 5% CO2 in Dulbecco’s Modified Eagle’s medium (DMEM) in 96 well plate to obtain 70–80% confluency. Further, the cells were incubated overnight at 37 °C with 10 µM and 50 µM compounds in triplicate. Cells treated with 1% DMSO were used as controls. At the end of the treatment (12 h), 10 μL of 12 mM MTT dissolved in Phosphate buffer saline pH 7.4, was added to each well and incubated for an additional 2 h at 37 °C. The media was then removed from the plate and 100 µL of DMSO was added to dissolve the violet formazan crystals. Finally, the absorbance was measured at 540 nm with a reference wavelength of 630 nm on Tecan spectrophotometer with shaking before the reading. The percentage viability was calculated taking 1% DMSO control as 100 percent and presented as mean ± SD.

Structure (SMILES)	BuChE % IR (inhibition rate) [1]	inhibition at 200 µM [1]	Vmax of rChAT ([2]; inhibitor 2.0 µM)	Vmax of rChAT ([2]; inhibitor 10.0 µM)	Vmax of rChAT ([2]; inhibitor 50.0 µM)	Vmax of rChAT ([2]; inhibitor 250.0 µM)	inhibition at 200 µM [3]	% of cell proliferation ([4]; 10 µM)	% of cell proliferation ([4]; 50 µM)	cellular toxicity in MTT assay (in words) [4]	AChE % IR (inhibition rate) ([3]; 200 µM)
CC(C)NC(=O)C1CCN(C(=O)c2csc(Nc3cccc4ccccc34)n2)CC1 [Compound B4]	22.1%	22%	226 ± 20.9 µM/min	150.9 ± 13.5 µM/min	92.1 ± 19.4 µM/min	45.5 ± 8.5 µM/min	0%	106.4 ± 5.8%	74.2 ± 3.9%	lower cellular toxicity	–
CC(C)c1ccc(C(=O)CSc2n[nH]c(-c3ccco3)n2)cc1 [Compound E1]	17.2%	17%	265.1 ± 11.7 µM/min	243.8 ± 22.0 µM/min	167.8 ± 10.4 µM/min	160.3 ± 16.8 µM/min	12%	101.9 ± 0.6%	75.4 ± 4.9%	lower cellular toxicity	12.4%
